Measurements from patent publication US20210253628A1, “COMPOUNDS, COMPOSITIONS, AND METHODS FOR TREATMENT OF ANDROGEN-MEDIATED DISEASE” (The Regents of the University of California, priority 2018, published 2021).
Entries after “also recorded” stand apart in the source; their conditions may differ.

How the values were obtained:
CWR22Rv1 = CWR22Rv1 cell number with Nic-S with or without enzalutamide or abiraterone acetate; assay type: cell-based
Wnt5A = Wnt5A expression by Western blot in C4-2B MDVR cells; assay type: cell-based; conditions: C4-2B MDVR cell lysates, different concentrations
CWR22-rv1 tumors = CWR22-rv1 tumors in mice, combination treatment with Nic-S and enzalutamide
VCaP cells = assay: VCaP cell growth with or without enzalutamide; conditions: 3 days; for VCaP cell growth, single agent: 10 μM or 25 μM Si-1 or Si-2, or 20 μM enzalutamide
VCaP tumors = assay: Castration relapsed VCaP xenograft tumor model; conditions: for Ki67 expression in relapsed VCaP tumors, single agent / tumor growth, single agent (combination study): enzalutamide 25 mg/Kg p.o. or Si-1 25 mg/Kg i.p.
Description: Tumor volumes were determined twice weekly.
VCaP tumors were allowed to develop in intact SCID mice and the animals were castrated after tumors reached 80-100 mm^3 of size. […] Tumor proliferation and AR expression by IHC was also examined.
The VCaP tumor model was then used to validate the efficacy of combination therapy.

AR [1] = assay: AR expression by western blot in VCaP cells; conditions: 3 days; for AR expression: western blot, 25 μM Si-1 or Si-2 or 20 μM enzalutamide alone
Description: (§1) The sensitivity of prostate cancer cells to STS inhibitors was tested using cell growth assays and clonogenic assays. Quantitative reverse transcription-PCR, and Western blotting were performed to detect expression levels of STS and AR. […] Steroid profile including DHEA and androgens was analyzed by Liquid Chromatography-Mass Spectrometry (LC-MS). STS activity was determined by 4-Methylumbelliferyl sulfate assay through a fluorescence microtiter plate reader. PSA secretion was determined by ELISA and PSA-luciferase activity was measured by reporter assay.
(§2) The AR expression was also determined by western blot.

[2] = in vivo; cited from earlier work
[3] = cited from earlier work
[4] = tested on: MCF-7, MDA-MB-468 and MDA-MB-231 cells; assay: Breast cancer cell growth (cell numbers counted); assay type: cell-based; conditions: different doses, 48 hrs
STS = target: T1, STS (Homo sapiens, UniProt P08842); assay: STS enzymatic activity in VCaP cells (4-Methylumbelliferyl sulfate microtiter plate cellular assay, fluorescence readout); assay type: cell-based
T1 construct: A VCaP tumor model that expresses endogenous STS was employed; endogenous in cells; host or cells: VCaP prostate cancer cells
T1 sequence (P08842 22-583): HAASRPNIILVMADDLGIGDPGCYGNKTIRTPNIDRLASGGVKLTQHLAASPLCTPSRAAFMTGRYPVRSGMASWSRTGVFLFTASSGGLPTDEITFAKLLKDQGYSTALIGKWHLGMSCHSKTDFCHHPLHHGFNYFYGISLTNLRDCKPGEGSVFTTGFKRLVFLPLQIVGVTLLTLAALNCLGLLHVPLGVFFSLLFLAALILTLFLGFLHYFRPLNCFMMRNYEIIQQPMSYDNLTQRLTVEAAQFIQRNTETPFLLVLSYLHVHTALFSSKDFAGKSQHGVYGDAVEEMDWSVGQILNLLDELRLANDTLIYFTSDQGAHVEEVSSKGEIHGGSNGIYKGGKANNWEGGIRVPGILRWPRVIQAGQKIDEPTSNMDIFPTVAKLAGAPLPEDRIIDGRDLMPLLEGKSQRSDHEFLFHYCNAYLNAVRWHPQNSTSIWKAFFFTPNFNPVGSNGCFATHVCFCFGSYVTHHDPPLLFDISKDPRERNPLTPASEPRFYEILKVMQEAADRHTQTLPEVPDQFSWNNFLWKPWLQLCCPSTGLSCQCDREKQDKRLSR
Description: VCaP cells were treated with 5 μM of different STSi, and STS activity was measured by microtiter plate cellular assay using fluorescence readout.
To evaluate the ability of STSi in inhibition of STS enzymatic activity, VCaP prostate cancer cells were treated with two synthesized STSi and STS enzymatic activity was measured. The activity assay was carried as described by Wolff, et al. (Anal Biochem, 2003. 318(2): p. 276-284). […] FIG. 3 shown the effects of other STSi on STS enzymatic activity in VCaP cells.

AR [5] = assay: PSA-luciferase reporter assay (AR transcriptional activity) in VCaP cells; assay type: cell-based
Description: as §1, §2

[6] = tested on: C4-2B, LNCaP, DU145, PC3, CWR22rv1 and VCaP cells; assay: Prostate cancer cell growth assay (cell numbers counted)

NS(=O)(=O)Oc1ccc(Cl)cc1C(=O)Nc1ccc([N+](=O)[O-])cc1Cl [Niclosamide sulfamate, niclosamide sulfamate]
enhancement of Enza/AA treatment (CWR22Rv1; 0.5 μM Nic-S with 20 μM enzalutamide or 5 μM abiraterone acetate): synergistically enhances | enhancement of enzalutamide treatment in vitro (CWR22Rv1; 0.5 μM Nic-S with 20 μM enzalutamide, 3 and 5 days): synergistically enhance | Wnt5A expression (Wnt5A): inhibit | Wnt5A expression (Wnt5A; listed as Nic-S): suppresses | toxicity (CWR22-rv1 tumors; body weight of mice bearing CWR22-rv1 tumors): without obvious toxicity | enhancement of enzalutamide treatment in vivo (CWR22-rv1 tumors; tumor volume, mice bearing CWR22-rv1 tumors): synergistically enhance

CNC(=O)c1ccc(N2C(=S)N(c3ccc(C#N)c(C(F)(F)F)c3)C(=O)C2(C)C)cc1F [enzalutamide, reference compound]
VCaP cell growth, single agent (VCaP cells): slightly suppressed | Ki67 expression in relapsed VCaP tumors, single agent (VCaP tumors; IHC): did not affect | tumor growth, single agent (combination study) (VCaP tumors; 3 weeks): only slighted delayed | AR expression (AR [1]): decreased

O=C(Nc1ccc([N+](=O)[O-])cc1Cl)c1cc(Cl)ccc1O [Niclosamide, 2′,5-dichloro-4′-nitrosalicylanilide]
oral bioavailability [2]: low | solubility [3]: low

CCN(C(=O)C1=CCC2C3CCc4cc(OS(N)(=O)=O)ccc4C3CCC12C)C(C)C (stereo not drawn) [Si-1]
breast cancer cell growth (cell numbers) [4]: inhibits cell growth in a dose dependent manner | STS activity (STS): inhibited | AR transcriptional activity (AR [5]): significantly suppressed | VCaP cell growth, single agent (VCaP cells): reduced | VCaP cell numbers, combination with enzalutamide (VCaP cells; Si-1 or Si-2 with 20 μM enzalutamide): further reduced | AR staining / tumor AR expression in VCaP tumors (IHC) (VCaP tumors; 25 mg/kg/d i.p., 3 weeks): significantly suppressed | Ki67 staining in VCaP tumors (IHC) (VCaP tumors; 25 mg/kg/d i.p., 3 weeks): less | tumor suppression compared with control (VCaP tumors; 25 mg/kg/d i.p., 3 weeks): around 60% | relapsed VCaP tumor growth / tumor progression (VCaP tumors; 25 mg/kg/d i.p., castrated mice, 3 weeks): significantly suppressed; also recorded: significantly diminished | decrease of serum PSA (VCaP tumors; 3 weeks of treatment, control group 300 ng/mL PSA, ELISA): 50% | Ki67 expression in relapsed VCaP tumors, combination with enzalutamide (VCaP tumors; IHC, Si-1 plus enzalutamide): further lowered | Ki67 expression in relapsed VCaP tumors, single agent (VCaP tumors; IHC): significantly decreased | tumor growth, combined with enzalutamide (VCaP tumors; Si-1 25 mg/Kg i.p. plus enzalutamide 25 mg/Kg p.o., 3 weeks): further suppressed | tumor weight, single agent (combination study) (VCaP tumors; Si-1 25 mg/Kg i.p., 3 weeks): significantly suppressed | tumor weight (VCaP tumors; after 3 weeks treatment, 25 mg/kg/d i.p.): significantly decreased | mice body weight (VCaP tumors; compared with control group, 25 mg/kg/d i.p.): not affected | tumor growth, single agent (combination study) (VCaP tumors; 3 weeks): significantly suppressed | AR expression, combination with enzalutamide (AR [1]; 25 μM Si-1 or Si-2 with 20 μM enzalutamide): completely suppressed | AR expression (AR [1]): significantly suppressed; also recorded: significantly decreased | growth of C4-2B and VCaP cells ([6]; C4-2B and VCaP cells): inhibited | cell growth (cell numbers) ([6]; increasing doses, 48 hrs, C4-2B, LNCaP, DU145, PC3, CWR22rv1 and VCaP cells): inhibited cell growth in a dose dependent manner
